Several values for one entry are separate records, joined by “and”; a condition that tells them apart may be missing. Identical values can stand only once. Like-named read-outs stand apart in the source and are kept apart here. Marks after values point to notes of the source that are not given here.
Legend:
[1] = tested on: G. lamblia trophozoites (luciferase expressing, WBC6); test: microbe, parasite or virus in culture; assay type: cell-based, Giardia lamblia; settings: for EC50: read-out: G. lamblia EC50; for inhibition at 16 µM: read-out: Giardia (16 uM) Mean % inhibition; for Giardia (16 uM) Mean % inhibition: initial Pathogen Box screen, single concentration 16 µM, inhibition compared to DMSO wells
Procedure, shortened: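 Luciferase-expressing WBC6 trophozoites plated at 250,000 cells/mL, compounds added 1:1, incubated anaerobically (GasPak bags) at 37 °C for 24 h; viability read by bioluminescence, with duplicate plates counted on a MOXI Z cell counter. Metronidazole control serially diluted 1:2 from 40 μM.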

[2] = tested on: C. parvum (UGA1 Nluc expressing strain in HCT-8 cells); test: microbe, parasite or virus in culture; assay type: cell-based, Cryptosporidium parvum; settings: for Crypto (10 uM) Mean % inhibition: initial Pathogen Box screen, single concentration 10 µM, inhibition compared to DMSO wells; for C. parvum cell growth inhibition in the initial screen: 10 μM
Procedure, shortened: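 HCT-8 monolayers grown 48 h to 90–100% confluence, treated with compound at 10 μM or serial dilutions, then infected with bleach-treated UGA1 Nluc C. parvum oocysts.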

[3] = Cytotoxicity against HepG2 cells, AlamarBlue viability assay, 48 hours; assay type: cell-based, human; settings: human, HepG2 cells, read-out: HepG2 CC50 (this study)
Description: (§1) Mammalian cell cytotoxicity assay data performed on HepG2 (human hepatocellular carcinoma) cells and described as CC20 or CC50 values are provided in supporting documentation that accompanied the Pathogen Box for approximately three quarters of the 400 compounds. However, no details of the assay conditions or parameters were provided. In this study, selected compounds were further tested for cytotoxicity against HepG2 cells as previously described. Briefly, cells were exposed to two-fold serial dilutions of compounds for 48 hours and cytotoxicity was assessed using the AlamarBlue® viability assay (Thermo Fisher Scientific, Waltham, MA). Each dilution was assayed in quadruplicate and concentrations causing 50% growth inhibition (CC50) were calculated by non-linear regression using GraphPad Prism 7 software (GraphPad Software, San Diego, CA).

HepG2 cells [4] = settings: ref Pathogen_Box_Activity_Biological_Data_ Structure & Smiles (https://www.pathogenbox.org/about-pathogen-box/composition), cited from earlier work; for HepG2 CC20 (literature values): CC20 (footnote ^); for CC50: read-out: HepG2 CC50 (literature values)
G. lamblia = settings: read-out: G. lamblia EC50 (literature), cited from earlier work
HepG2 cells [5] = test: Cytotoxicity against HepG2 cells, AlamarBlue viability assay, 48 hours; assay type: cell-based, human; settings: read-out: HepG2 CC50 (this study)
Description: as §1

C. parvum = settings: cited from earlier work
[6] = Cryptosporidium parvum, HCT-8, read-out: Crypto (10 uM) Mean % inhibition
[7] = Cryptosporidium parvum, HCT-8, 48 h, read-out: C. parvum EC50, Nluc C. parvum in HCT-8 cells, 48 hours
[8] = luciferase expressing G. lamblia trophozoites, 24 hours, D-luciferin bioluminescence read-out
[9] = Nluc C. parvum in HCT-8 cells, 48 hours, read-out: C. parvum EC50

CC1CS(=O)(=O)CCN1/N=C/c1ccc([N+](=O)[O-])o1 (stereo not shown) [MMV001499, Nifurtimox, reference compound]
EC50 ([1]; Giardia duodenalis, 24 h): 0.64 ± 0.12 µM | inhibition at 16 µM ([1]; Giardia duodenalis): 97% | inhibition at 10 µM [2, 6]: < 0% | CC50 at 48 h [3]: > 40 µM | HepG2 CC20 (literature values) (HepG2 cells [4]): >80 ^* ^^ μM | EC50 (G. lamblia; reference strain WB (48h)): 0.37 µM

Oc1c(I)cc(I)c2cccnc12 [MMV002817, Iodoquinol, reference compound]
EC50 ([1]; Giardia duodenalis, 24 h): 2.52 ± 0.45 µM | inhibition at 16 µM ([1]; Giardia duodenalis): 82% | EC50 [2, 7]: 0.48 ± 0.2 µM | inhibition at 10 µM ([2]; Cryptosporidium parvum, HCT-8, 48 h, read-out: C. parvum cell growth inhibition in the initial screen): ≥ 95% | inhibition at 10 µM [2, 6]: 95% | CC50 at 48 h [3]: ~40 µM | HepG2 CC20 (literature values) (HepG2 cells [4]): 2.50 ^* ^^ μM

COc1cc(-c2cc(-c3ccc(S(C)(=O)=O)cc3)cnc2N)ccc1O [MMV010576]
Giardia (16 uM) Mean % inhibition [1]: 94% | EC50 [1, 8]: 1.9 ± 0.28 µM | EC50 [2, 9]: 3 µM and 2.99 µM | Crypto (10 uM) Mean % inhibition [2]: 87% | CC50 (HepG2 cells [5]): > 40 µM | CC50 (HepG2 cells [4]): > 10 µM

O=C(Nc1ccc(N2CCNCC2)cc1)c1ccn2ncc(-c3cccc(Cl)c3)c2n1 [MMV022478]
Giardia (16 uM) Mean % inhibition [1]: 98% | EC50 [1, 8]: 2.41 ± 0.12 µM | Crypto (10 uM) Mean % inhibition [2]: X* (Mean or standard deviation are negative but not significantly different from the control to be a growth promoter) | CC50 (HepG2 cells [5]): > 40 µM | CC50 (HepG2 cells [4]): > 10 µM

OCCc1ccc(Nc2nccc(-c3nnc4ccccn34)n2)cc1 [MMV028694]
Giardia (16 uM) Mean % inhibition [1]: 99% | EC50 [1, 8]: 3.88 ± 1.27 µM | EC50 [2, 9]: 1.56 ± 0.5 µM | Crypto (10 uM) Mean % inhibition [2]: 85% | CC50 (HepG2 cells [5]): 15.9 µM | CC50 (HepG2 cells [4]): 8.1 µM

CC(C)(C)c1cnc(NC(=O)c2ccccc2O)s1 [MMV495543]
Giardia (16 uM) Mean % inhibition [1]: 97% | EC50 [1, 8]: 2.77 ± 0.21 µM | Crypto (10 uM) Mean % inhibition [2]: 51% | CC50 (HepG2 cells [5]): > 40 µM | CC50 (HepG2 cells [4]): 47.6 µM

CC(C)C(Oc1cccc2ccccc12)C(=O)O (stereo not shown) [MMV676191]
Giardia (16 uM) Mean % inhibition [1]: 9% | C. parvum cell growth inhibition in the initial screen ([2]; 48 hours): 36% | EC50 (C. parvum; ref MMV Pathogen_Box_Activity_Biological_Data_Smiles (https://www.pathogenbox.org/about-pathogen-box/composition), read-out: C. parvum EC50 reported in Pathogen Box datasheet): > 10 µM

O=C(Nc1cccnc1)c1c(O)c2cccc3c2n(c1=O)CC3 [MMV676395]
Giardia (16 uM) Mean % inhibition [1]: 98% | EC50 [1, 8]: 1.57 ± 0.2 µM | C. parvum EC50 ([2]; Nluc C. parvum in HCT-8 cells, 48 hours): not potent | Crypto (10 uM) Mean % inhibition [2]: 85% | CC50 (HepG2 cells [5]): > 40 µM | CC50 (HepG2 cells [4]): > 100 µM

O=C(Nc1nnc(-c2ccc(Cl)s2)o1)c1ccc(Cl)s1 [MMV676501]
Giardia (16 uM) Mean % inhibition [1]: 78% | EC50 [1, 8]: 1.4 ± 0.2 µM | EC50 [2, 9]: 4.96 ± 1.8 µM | Crypto (10 uM) Mean % inhibition [2]: 93% | CC50 (HepG2 cells [5]): > 40 µM | CC50 (HepG2 cells [4]): 50.1 µM

CN1CCN(CCCOc2ncc(Nc3ncc(-c4ccc(C(F)(F)F)c(F)c4)nc3C(N)=O)cn2)CC1 [MMV687812]
Giardia (16 uM) Mean % inhibition [1]: 98% | EC50 [1, 8]: 1.25 ± 0.12 µM | Crypto (10 uM) Mean % inhibition [2]: 66% | CC50 (HepG2 cells [5]): 5.33 µM | CC50 (HepG2 cells [4]): 3.9 µM

C[C@]1(COc2ccc(N3CCC(Oc4ccc(OC(F)(F)F)cc4)CC3)cc2)Cn2cc([N+](=O)[O-])nc2O1 [MMV688262, Delamanid, reference compound]
EC50 ([1]; Giardia duodenalis, 24 h): 0.55 ± 0.04 µM | inhibition at 16 µM ([1]; Giardia duodenalis): 97% | inhibition at 10 µM [2, 6]: < 0% | CC50 at 48 h [3]: > 40 µM | CC50 (HepG2 cells [4]): 72.5 µM

O=[N+]([O-])c1cn2c(n1)OC[C@@H](OCc1ccc(OC(F)(F)F)cc1)C2 [MMV688755]
Giardia (16 uM) Mean % inhibition [1]: 99% | EC50 [1, 8]: 1.57 ± 0.38 µM | Crypto (10 uM) Mean % inhibition [2]: 17% | CC50 (HepG2 cells [5]): > 40 µM | CC50 (HepG2 cells [4]): > 50 µM

COc1ccc2nccc(NC(=O)C3CCN(CCc4ccc(Cl)cc4)CC3)c2n1 [MMV688844]
Giardia (16 uM) Mean % inhibition [1]: 98% | EC50 [1, 8]: 2.3 ± 0.43 µM | Crypto (10 uM) Mean % inhibition [2]: X* (Mean or standard deviation are negative but not significantly different from the control to be a growth promoter) | CC50 (HepG2 cells [5]): > 40 µM | CC50 (HepG2 cells [4]): > 50 µM

CCOc1ccc2cc(-c3nn(CC4CCN(C)CC4)c4ncnc(N)c34)ccc2c1 [MMV688854, reference compound]
Giardia (16 uM) Mean % inhibition [1]: 9% | C. parvum cell growth inhibition in the initial screen ([2]; 48 hours): 79% | EC50 (C. parvum; same strain of Nluc C. parvum, read-out: C. parvum EC50 (previously shown)): 2.7 µM

CC(=O)Oc1ccccc1C(=O)Nc1ncc([N+](=O)[O-])s1 [MMV688991, Nitazoxanide, reference compound]
EC50 ([1]; Giardia duodenalis, 24 h): 0.8 ± 0.1 µM | inhibition at 16 µM ([1]; Giardia duodenalis): 97% | EC50 [2, 7]: 3.1 ± 0.4 µM | inhibition at 10 µM [2, 6]: 92% | CC50 at 48 h [3]: 10.7 µM | HepG2 CC20 (literature values) (HepG2 cells [4]): 6.35 ^* ^^ μM | EC50 (G. lamblia; WB strain (48h)): 0.8 µM | EC50 (G. lamblia; reference strain WB (48h)): 0.61 µM

CC(c1cc(Cl)cc(Cl)c1)N(C)c1ncc2c(N)nc(N)nc2n1 (stereo not shown) [MMV689437]
Giardia (16 uM) Mean % inhibition [1]: 46% | Crypto (10 uM) Mean % inhibition [2]: X* (Mean or standard deviation are negative but not significantly different from the control to be a growth promoter)

CNc1cc(C)nc(C2CN(C(=O)c3n[nH]c4ccccc34)CCO2)c1 (stereo not shown) [MMV689709]
Giardia (16 uM) Mean % inhibition [1]: 19% | Crypto (10 uM) Mean % inhibition [2]: 45%

COc1nc2ccc(Br)cc2cc1[C@@H](c1ccccc1)[C@@](O)(CCN(C)C)c1cccc2ccccc12 [MMV689758]
Giardia (16 uM) Mean % inhibition [1]: 62% | Crypto (10 uM) Mean % inhibition [2]: 68%

COc1ccc(C2=NN(C3CCCCCC3)C(=O)[C@@H]3CC=CC[C@H]23)cc1OCCCCOc1ccc(-c2nn[nH]n2)cc1 [MMV690027]
Giardia (16 uM) Mean % inhibition [1]: 24% | Crypto (10 uM) Mean % inhibition [2]: 44%

COc1ccc(C2=NN(C3CCCCCC3)C(=O)C2(C)C)cc1OCCCCOc1ccc(-c2nn[nH]n2)cc1 [MMV690028]
Giardia (16 uM) Mean % inhibition [1]: 70% | Crypto (10 uM) Mean % inhibition [2]: 61%

COc1ccc(Oc2ccc([C@@H](C)N(C)c3ncc4c(N)nc(N)nc4n3)cc2)cc1 [MMV690102]
Giardia (16 uM) Mean % inhibition [1]: 62% | Crypto (10 uM) Mean % inhibition [2]: 77%

C[C@H](c1ccc2c(c1)CCCC2)N(C)c1ncc2c(N)nc(N)nc2n1 [MMV690103]
Giardia (16 uM) Mean % inhibition [1]: 49% | Crypto (10 uM) Mean % inhibition [2]: 78%

CCc1ccc(C(NCc2nc(N)nc(N(C)C)n2)C(C)C)cc1 (stereo not shown) [MMV1019989]
Giardia (16 uM) Mean % inhibition [1]: 4.4% | Crypto (10 uM) Mean % inhibition [2]: X* (Mean or standard deviation are negative but not significantly different from the control to be a growth promoter)

O=C(Nc1nc(-c2ccccn2)cs1)C1CC1c1ccccc1F (stereo not shown) [MMV1028806]
Giardia (16 uM) Mean % inhibition [1]: X* (Mean or standard deviation are negative but not significantly different from the control to be a growth promoter) | Crypto (10 uM) Mean % inhibition [2]: 91%

CNC(=O)CNc1nc(-c2ccccn2)nc2scc(-c3ccccc3)c12 [MMV1029203]
Giardia (16 uM) Mean % inhibition [1]: 4% | Crypto (10 uM) Mean % inhibition [2]: 21%

CCCn1c(NC(=O)c2ccc3ccccc3n2)nc2ccccc21 [MMV1030799]
Giardia (16 uM) Mean % inhibition [1]: 13% | Crypto (10 uM) Mean % inhibition [2]: 81%

CCNC(=O)C(C)Nc1nc(-c2cccnc2)nc2sc(C)c(C)c12 (stereo not shown) [MMV1037162]
Giardia (16 uM) Mean % inhibition [1]: 11% | Crypto (10 uM) Mean % inhibition [2]: 20%

Cc1ccc(-c2nc(CN(Cc3ccccn3)C(C)C)cs2)o1 [MMV1088520]
Giardia (16 uM) Mean % inhibition [1]: 52% | Crypto (10 uM) Mean % inhibition [2]: 27%

COc1cccn2c(C(=O)N3CCCCC3)c(C(F)(F)F)nc12 [MMV1110498]
Giardia (16 uM) Mean % inhibition [1]: 61% | Crypto (10 uM) Mean % inhibition [2]: 60%

Cc1cc(OCC(=O)Nc2ccc(C(C)C)cc2)n(C)c(=O)c1C#N [MMV1198433]
Giardia (16 uM) Mean % inhibition [1]: 10% | Crypto (10 uM) Mean % inhibition [2]: 52%

CCOC(=O)c1noc(N)c1-c1ccccc1 [MMV1236379]
Giardia (16 uM) Mean % inhibition [1]: X* (Mean or standard deviation are negative but not significantly different from the control to be a growth promoter) | Crypto (10 uM) Mean % inhibition [2]: X* (Mean or standard deviation are negative but not significantly different from the control to be a growth promoter)

CCCSc1ccc2nc(NC(=O)OC)[nH]c2c1 [albendazole, Albendazole, reference compound]
EC50 ([1]; Giardia duodenalis, 24 h): 0.41 µM | EC50 (G. lamblia; reference strain WB (48h)): 0.23 µM

Reference: publication PMC6095626, “Screening of the Pathogen Box for inhibitors with dual efficacy against Giardia lamblia and Cryptosporidium parvum” (PLoS Neglected Tropical Diseases, 2018)
